We go through 15 molecules from US8624034B2, “Fluoro-pyridinone derivatives useful as antibacterial agents” (Pfizer Inc., priority 2011, dated 2014).

Each structure is given as a SMILES string. In brackets after ≈: the same amount, converted by molar mass. Several values for one entry are separate records, joined by “and”; a condition that tells them apart may be missing. Equal values may be shown once.

Experiment [1] addresses T1, Pseudomonas aeruginosa LpxC enzyme (Pseudomonas aeruginosa, UniProt P47205).
T1 construct: made in house; host or cells: E. coli
T1 sequence (P47205 1-303): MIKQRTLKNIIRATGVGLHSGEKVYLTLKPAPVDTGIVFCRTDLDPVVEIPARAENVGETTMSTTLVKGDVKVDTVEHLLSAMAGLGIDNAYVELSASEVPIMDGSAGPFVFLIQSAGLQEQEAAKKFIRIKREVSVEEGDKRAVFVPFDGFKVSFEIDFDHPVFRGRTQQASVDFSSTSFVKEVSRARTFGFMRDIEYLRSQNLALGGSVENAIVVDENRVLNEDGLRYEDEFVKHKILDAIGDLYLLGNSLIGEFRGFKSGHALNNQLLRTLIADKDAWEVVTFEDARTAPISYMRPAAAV
The experiment in a line: IC50 assay, LpxC enzyme from P. aeruginosa (PA LpxC enzyme IC50). Type of experiment: biochemical. As to conditions: Table 3; LpxC enzyme 0.1 nM, 25° C., 1 hour; read-out: PA:IC50. As for the experimental part:
In order to assess the compounds biological activity, selected in vitro assays were conducted on selected compounds. One of the assays measured the compounds ability to disrupt the synthesis of lipopolysaccharide, LPS, which is a component of the outer membrane of Gram-negative bacteria. Disruption of this synthesis is lethal to the bacteria. The assay determined the compound's ability to inhibit LpxC, which is the first enzyme in the biosynthetic pathway for LPS (measured as IC50). Additionally, MICs (minimal inhibitory concentrations) were determined for several bacteria. The specific protocols are described below:
A) IC50 Assay, LpxC Enzyme from P. aeruginosa (Labeled as PA LpxC Enzyme IC50):
At the end of 1 hour, 5 ul of 1 N HCl was added to stop the enzyme reaction, the plates were centrifuged, and then processed with the BioTrove Rapidfire HTMS Mass Spectrometry System. A no-enzyme control was used in calculating the IC50 values from the percent conversion values.

Experiment [2] concerns Acinetobacter baumannii/haemolyticus, multidrug-resistant clinical isolate (AB-3167). The experiment in a line: MIC determination, AB-3167. The class given is cell-based. As to conditions: Table 3, lower of duplicate values. As for the experimental part: (§1) The in vitro antibacterial activity of compounds described in the Examples was evaluated by minimum inhibitory concentration (MIC) testing according to Clinical and Laboratory Standards Institute (CLSI). See: Clinical and Laboratory Standards Institute. Methods for Dilution Antimicrobial Susceptibility Tests for Bacteria that Grow Aerobically; Approved Standard-Eighth Edition. CLSI document M7-A8 [ISBN 1-56238-689-1]. Clinical and Laboratory Standards Institute, 940 West Valley Road, Suite 1400, Wayne, Pa. 19087-1898 USA, 2006; also Clinical and Laboratory Standards Institute. Performance Standards for Antimicrobial Susceptibility Testing; Twentieth Informational Supplement. CLSI document M100-S20 [ISBN 1-56238-716-2]. Clinical and Laboratory Standards Institute.
(§2) The MIC determination is a standard laboratory method for evaluating the antibacterial activity of a compound. The MIC represents the lowest drug concentration that inhibits visible growth of bacteria following overnight incubation. […] Typically, the drug concentration range is broken down into 2-fold increments (e.g. 0.06 μg/mL, 0.12 μg/mL. 0.25 μg/mL, 0.50 μg/mL, 1.0 μg/mL, etc.) and the various drug concentrations are all individually incubated overnight with approximately the same number of bacteria. The MIC is then determined by visually inspecting the drug effect at each concentration, and identifying the lowest drug concentration that has inhibited bacterial growth as compared to the drug free control. Typically, bacteria continue to grow at drug concentrations lower than the MIC and don't grow at concentrations at and above the MIC.
(§3) The MIC values described in Table 2 and 3 below were derived from assays wherein each test compound was evaluated in duplicate. In cases where the duplicate values varied by 0-2-fold, the lower of the two values was reported below. Generally speaking, if the duplicate values varied by more than 2-fold, the assay was considered non-valid and was repeated until the variation between duplicate runs was ≦2-fold. In line with the CLSI guidelines referred to above, both control organisms and reference compounds were utilized in each MIC assay to provide proper quality control. MIC values generated with these control organisms and reference compounds were required to fall within a defined range for the assay to be considered valid and be included herein. Those skilled in the art will recognize that MIC values can and do vary from experiment to experiment. Generally speaking, it should be recognized that MIC values often vary +/−2-fold from experiment to experiment. While a single MIC is reported for each compound and each microorganism, the reader should not conclude that each compound was only tested once. Several of the compounds were subjected to multiple tests. The data reported in Tables 2 and 3 is reflective of the compounds relative activity and different MICs may have been generated on these occasions in line with the guidelines described above.
(§4) The following bacterial strains were used in these MIC determinations:
2) Acinetobacter baumannii/haemolyticus: Multidrug-resistant clinical isolate labeled as AB-3167 in Tables 2 and 3;

Experiment [3] deals with PA:UC12120. Nature of the experiment: MIC determination, PA:UC12120 (Table 3). The class given is cell-based, Pseudomonas aeruginosa. To be noted: for MIC: Pseudomonas aeruginosa, UC12120, Table 3, lower of duplicate values. As for the experimental part:
as §1, §2, §3
In Table 3 below, column 1 corresponds to the Example number, column 2 provides the IUPAC name, columns 3-6 provide in vitro biological data generated in the same manner as in Table 2, columns 7 and 8 provide the retention times and mass spectra generated via LCMS, using the method described below. All data is not currently available for all compounds, as indicated by a blank cell in Table 3.

The test system of experiment [4] is Escherichia coli EC-1: VOGEL, mouse virulent. The experiment in a line: MIC determination, EC-1. To be noted: for MIC: Escherichia coli, read-out: EC-1 (MIC), Table 3, lower of duplicate values. Type of experiment: cell-based. As for the experimental part: as §1, §2, §3, §4
3) Escherichia coli EC-1: VOGEL, mouse virulent labeled as EC-1 in Tables 2 and 3;

Setting [5] is: Table 3, lower of duplicate values.

The IC50 is the concentration that inhibits the measured activity by half. The term MIC denotes the lowest concentration that inhibits growth of the organism. On to `COc1c(F)cc(-c2cc(=O)n(CCC(C)(C(=O)NO)S(C)(=O)=O)cc2F)cc1F` (centres unmarked) [Example 62, 4-[4-(3,5-difluoro-4-methoxyphenyl)-5-fluoro-2-oxopyridin-1(2H)-yl]-N-hydroxy-2-methyl-2-(methylsulfonyl)butanamide], for which the IC50 in experiment [1] is 2 nM and 3.1 nM. In addition, the MIC in experiment [2] was more than 64 µg/mL; in experiment [3], 2 µg/mL (≈ 4.46 µM); in experiment [4], 4 µg/mL (≈ 8.92 µM). Further, the “PA:UC12120 (MIC)” value in experiment [3] (setting [5]) was found to be 1 µg/mL. In addition, in experiment [4] (setting [5]), the “EC-1 (MIC)” value was 8 µg/mL.

On to `CN1Cc2cc(-c3cc(=O)n(CCC(C)(C(=O)NO)S(C)(=O)=O)cc3F)ccc2C1=O` (centres unmarked) [Example 64, 4-[5-fluoro-4-(2-methyl-1-oxo-2,3-dihydro-1H-isoindol-5-yl)-2-oxopyridin-1(2H)-yl]-N-hydroxy-2-methyl-2-(methylsulfonyl)butanamide], for which the IC50 in experiment [1] came out at 7.2 nM. Besides, the minimal inhibitory concentration (MIC) is more than 64 µg/mL in experiment [2], 64 µg/mL (≈ 142 µM) in experiment [3] and more than 64 µg/mL in experiment [4].

Turning to `CC(CCn1cc(F)c(-c2cccnc2)cc1=O)(C(=O)NO)S(C)(=O)=O` (centres unmarked) [Example 65, 4-(5′-fluoro-2′-oxo-3,4′-bipyridin-1′(2′H)-yl)-N-hydroxy-2-methyl-2-(methylsulfonyl)butanamide], the IC50 in experiment [1] came out at 82.3 nM. Further, the MIC in experiment [2] was more than 64 µg/mL; in experiment [3] it was 32 µg/mL (≈ 83.5 µM); in experiment [4], more than 64 µg/mL.

As for `CC(CCn1cc(F)c(-c2ccc(Cl)cc2F)cc1=O)(C(=O)NO)S(C)(=O)=O` (centres unmarked) [Example 66, 4-[4-(4-chloro-2-fluorophenyl)-5-fluoro-2-oxopyridin-1(2H)-yl]-N-hydroxy-2-methyl-2-(methylsulfonyl)butanamide], the IC50 in experiment [1] was 0.8 nM. Further, the MIC in experiment [2] is 64 µg/mL (≈ 147 µM); in experiment [3] it was 0.5 µg/mL (≈ 1.15 µM); in experiment [4], 0.5 µg/mL (≈ 1.15 µM).

As to `COc1cc(-c2cc(=O)n(CCC(C)(C(=O)NO)S(C)(=O)=O)cc2F)ccc1F` (centres unmarked) [Example 67, 4-[5-fluoro-4-(4-fluoro-3-methoxyphenyl)-2-oxopyridin-1(2H)-yl]-N-hydroxy-2-methyl-2-(methylsulfonyl)butanamide], in experiment [1], the IC50 stood at 4.5 nM. In addition, the MIC in experiment [2] was found to be 64 µg/mL (≈ 149 µM); in experiment [3] it was 4 µg/mL (≈ 9.29 µM); in experiment [4], 16 µg/mL (≈ 37.2 µM).

As for `CN(C)C(=O)c1ccc(-c2cc(=O)n(CCC(C)(C(=O)NO)S(C)(=O)=O)cc2F)cc1` (centres unmarked) [Example 68, 4-{5-fluoro-1-[4-(hydroxyamino)-3-methyl-3-(methylsulfonyl)-4-oxobutyl]-2-oxo-1,2-dihydropyridin-4-yl}-N,N-dimethylbenzamide], in experiment [1], the IC50 amounted to 34.3 nM. Also, the MIC in experiment [2], in experiment [3] and in experiment [4] was more than 64 µg/mL in each case.

As to `COc1ncccc1-c1cc(=O)n(CCC(C)(C(=O)NO)S(C)(=O)=O)cc1F` (centres unmarked) [Example 69, 4-(5′-fluoro-2-methoxy-2′-oxo-3,4′-bipyridin-1′(2′H)-yl)-N-hydroxy-2-methyl-2-(methylsulfonyl)butanamide], the IC50 in experiment [1] is 16.6 nM. In addition, the MIC was more than 64 µg/mL in experiment [2], 8 µg/mL (≈ 19.4 µM) in experiment [3] and 64 µg/mL (≈ 155 µM) in experiment [4].

Consider `CC(CCn1cc(F)c(-c2ccc(C#N)nc2)cc1=O)(C(=O)NO)S(C)(=O)=O` (centres unmarked) [Example 70, 4-(6-cyano-5′-fluoro-2′-oxo-3,4′-bipyridin-1′(2′H)-yl)-N-hydroxy-2-methyl-2-(methylsulfonyl)butanamide], for which the IC50 in experiment [1] was found to be 33.3 nM. For the same molecule, the MIC in experiment [2] was more than 64 µg/mL; in experiment [3], 64 µg/mL (≈ 157 µM); in experiment [4], more than 64 µg/mL.

Regarding `Cn1cnc2cc(-c3cc(=O)n(CCC(C)(C(=O)NO)S(C)(=O)=O)cc3F)cnc21` (centres unmarked) [Example 71, 4-[5-fluoro-4-(3-methyl-3H-imidazo[4,5-b]pyridin-6-yl)-2-oxopyridin-1(2H)-yl]-N-hydroxy-2-methyl-2-(methylsulfonyl)butanamide], the IC50 in experiment [1] is more than 100 nM. Further, the minimum inhibitory concentration (MIC) in experiment [2], in experiment [3] and in experiment [4] was more than 64 µg/mL in each case.

On to `CC(CCn1cc(F)c(-c2cnc3ccoc3c2)cc1=O)(C(=O)NO)S(C)(=O)=O` (centres unmarked) [Example 72, 4-(5-fluoro-4-furo[3,2-b]pyridin-6-yl-2-oxopyridin-1(2H)-yl)-N-hydroxy-2-methyl-2-(methylsulfonyl)butanamide], for which the IC50 in experiment [1] amounted to 34.8 nM. Further, the MIC in experiment [2] is more than 64 µg/mL; in experiment [3] it was 32 µg/mL (≈ 75.6 µM); in experiment [4] it was 64 µg/mL (≈ 151 µM).

With `CC(CCn1cc(F)c(-c2ccncc2F)cc1=O)(C(=O)NO)S(C)(=O)=O` (centres unmarked) [Example 73, 4-(3′,5-difluoro-2-oxo-4,4′-bipyridin-1(2H)-yl)-N-hydroxy-2-methyl-2-(methylsulfonyl)butanamide], the IC50 in experiment [1] is 8.3 nM. For the same molecule, the MIC is more than 64 µg/mL in experiment [2], 8 µg/mL (≈ 19.9 µM) in experiment [3] and more than 64 µg/mL in experiment [4].

On to `COc1cc(-c2cc(=O)n(CCC(C)(C(=O)NO)S(C)(=O)=O)cc2F)ccc1C#N` (centres unmarked) [Example 74, 4-[4-(4-cyano-3-methoxyphenyl)-5-fluoro-2-oxopyridin-1(2H)-yl]-N-hydroxy-2-methyl-2-(methylsulfonyl)butanamide], for which, in experiment [1], the concentration for half-maximal inhibition (IC50) is 5.9 nM. Also, the MIC in experiment [2] is more than 64 µg/mL; in experiment [3], 16 µg/mL (≈ 36.6 µM); in experiment [4] it was 64 µg/mL (≈ 146 µM).

With `COc1cc(-c2cc(=O)n(CCC(C)(C(=O)NO)S(C)(=O)=O)cc2F)cnc1OC` (centres unmarked) [Example 75, 4-(5′-fluoro-5,6-dimethoxy-2′-oxo-3,4′-bipyridin-1′(2′H)-yl)-N-hydroxy-2-methyl-2-(methylsulfonyl)butanamide], the IC50 in experiment [1] stood at 45.4 nM. The MIC in experiment [2], in experiment [3] and in experiment [4] was more than 64 µg/mL in each case.

For `CCOc1ccc(-c2cc(=O)n(CCC(C)(C(=O)NO)S(C)(=O)=O)cc2F)cc1` (centres unmarked) [Example 76, 4-[4-(4-ethoxyphenyl)-5-fluoro-2-oxopyridin-1(2H)-yl]-N-hydroxy-2-methyl-2-(methylsulfonyl)butanamide], in experiment [1], the IC50 is 1.1 nM. The MIC is more than 64 µg/mL in experiment [2], 0.5 µg/mL (≈ 1.17 µM) in experiment [3] and 0.25 µg/mL (≈ 0.586 µM) in experiment [4].

For `CC(CCn1cc(F)c(-c2ccc(CCC#N)cc2)cc1=O)(C(=O)NO)S(C)(=O)=O` (centres unmarked) [Example 77, 4-{4-[4-(2-cyanoethyl)phenyl]-5-fluoro-2-oxopyridin-1(2H)-yl}-N-hydroxy-2-methyl-2-(methylsulfonyl)butanamide], the IC50 in experiment [1] is 2.6 nM. Besides, the MIC in experiment [2] is more than 64 µg/mL; in experiment [3] it was 4 µg/mL (≈ 9.19 µM); in experiment [4] it was 32 µg/mL (≈ 73.5 µM).
